US20070293459A1, “Method for Inhibiting Cellular Na+-K+ ATPase Activity” (JASON LIFE TECH INC. LTD., priority 2006, published 2007)

Legend:
[1] = system: Na^+—K^+ ATPase; test: Na+-K+ ATPase activity of rat brain cortex plasma membrane (Pi liberated from ATP hydrolysis); type: biochemical; conditions: for Na+-K+ ATPase activity (free Pi), MLB compared with ouabain: FIG. 2, various MLB or ouabain concentrations
Text: (§1) First, Male Sprague-Dawley (NarII: SD) rats (3-month-old) were purchased from National Laboratory Animal Center (Nankang, Taipei) and raised under specific pathogen-free conditions. Animals were provided with rat chow (Rodent Laboratory Chow 5001, Purina, Mo.) and tap water throughout the studies. The rats received humane care in accordance with the guidelines of a guidebook for the care and use of laboratory animals. The animals were sacrificed by decapitation, and the brain and heart organs of the rats were removed immediately after complete exsanguination.
Next, the plasma membrane was isolated from the rat brain and heart at 4° C. The brain and heart homogenate were prepared respectively with homogenized plasma membrane in 10-20 volumes of […] sucrose solution containing 5.0 mM 4-(2-hydroxyethyl)-1-piperazineethanesulfonic acid (HEPES) and 1.0 mM EDTA, pH7.5. Then, the brain or heart homogenate was centrifuged at 1000×g for 10 min, and kept the resultant supernatant for further centrifuge at 17000×g for 30 min to obtain a crude plasma membrane fraction.
Then, the fraction was washed and suspended twice in 0.32 M sucrose HEPES-buffer, which was subjected to a discontinuous sucrose density gradient consisting of successive layers of […], and centrifuged at 63000×g for 1 hour. The plasma membrane was collected at the interface between […] sucrose to be further suspended in 0.32 M sucrose solution for enzyme assays within 2 hours.
Na^+—K^+ ATPase activity was determined by measuring the amount of inorganic phosphate (Pi) liberated from ATP hydrolysis.
First, commercial Na^+—K^+ ATPase from porcine cerebral cortex (Sigma, 0.3 units/mg) or a purified plasma membrane fraction incorporated into a reaction mixture of 1 ml containing 3 mM ATP, 5 mM MgCl2, 80 mM NaCl, 20 mM KCl, and 40 mM Tris-HCl, pH7.4, was prepared. The enzymatic reaction was terminated 15 min after Na^+—K^+ ATPase incorporation by adding 200 μl of 30% (WN) trichloroacetic acid.
After centrifugation at 6000 rpm for 15 min, supernatant of 500 μl measured the inorganic phosphate using spectrophotometric methods. Enzyme activity was expressed as μmol Pi liberated from ATP by 1 mg of Na^+—K^+ ATPase during 1 hour. Protein content was quantified using a Bradford protein assay kit (Sigma). For the observation of inhibitory effects on Na^+—K^+ ATPase activity, ouabain or MLB of various concentrations was incubated with commercial Na^+—K^+ ATPase or the purified plasma membrane fraction at 37° C. for 10 min prior to incorporation into the reaction mixture.

[2] = system: Na^+—K^+ ATPase; test: Na+-K+ ATPase activity of rat myocardium (cardiac) cell membrane (Pi liberated from ATP hydrolysis); type: biochemical; conditions: FIG. 5, various MLB concentrations
Text: as §1
Next, the plasma membrane was isolated from the rat brain and heart at 4° C. The brain and heart homogenate were prepared respectively with homogenized plasma membrane in 10-20 volumes of […] sucrose solution containing 5.0 mM 4-(2-hydroxyethyl)-1-piperazineethanesulfonic acid (HEPES) and 1.0 mM EDTA, pH7.5. […]
Na^+—K^+ ATPase activity was determined by measuring the amount of inorganic phosphate (Pi) liberated from ATP hydrolysis. […]
After centrifugation at 6000 rpm for 15 min, supernatant of 500 μl measured the inorganic phosphate using spectrophotometric methods. Enzyme activity was expressed as μmol Pi liberated from ATP by 1 mg of Na^+—K^+ ATPase during 1 hour. Protein content was quantified using a Bradford protein assay kit (Sigma). […]

[3] = system: cerebral hypoxia caused by sodium nitrite; test: Rat survival test after sodium nitrite (cerebral hypoxia); type: in vivo; conditions: FIG. 6, sodium nitrite 225 mg/kg
Experimental: Sodium nitrite will trigger the oxyhemoglobin converts into methemoglobin to cause the hypoxia and cell infract.
3-4 week old rats (about 20˜22 g) were randomly divided into three sample groups and one control group, and each group has 5 rats. […] After feeding for 7 days, one hour later of the final feeding, each rat was injected with sodium nitrite (225 mg/kg). Then count time on the spot to record the survival time of rats.

[4] = system: cerebral infarct after ischemia-reperfusion; test: Focal cerebral ischemia-reperfusion (CCA/MCA occlusion) infarct test in gerbils; type: in vivo, gerbil; conditions: for cell infarct volume vs control: FIG. 7; for cell infarct size vs control: FIG. 8

O=C(/C=C/c1ccc(O)c2c1[C@H](C(=O)O[C@H](Cc1ccc(O)c(O)c1)C(=O)[O-])[C@@H](c1ccc(O)c(O)c1)O2)O[C@H](Cc1ccc(O)c(O)c1)C(=O)[O-].[Mg+2] [MLB, magnesium lithospermate B]
Na+-K+ ATPase activity (inorganic phosphate liberated from ATP hydrolysis) with increasing concentration ([1]; FIG. 1, rat brain cortex, various MLB concentrations, 37° C. 10 min preincubation): the measured free inorganic phosphate (Pi) decreases with increased MLB concentration | Na+-K+ ATPase activity (free Pi), MLB compared with ouabain ([1]; rat brain cortex): the inhibitory behavior of MLB is consistent with the ouabain | Na+-K+ ATPase activity (free Pi) of brain cortex cell membrane ([1]; FIG. 4, rat brain cortex cell membrane, various MLB concentrations): the MLB is able to inhibit the Na^+—K^+ ATPase activity of the cortex cell membrane | Na+-K+ ATPase activity (free Pi) of cardiac cell membrane [2]: MLB is able to inhibit the Na^+—K^+ ATPase activity of cardiac cell membranes | survival rate vs control after sodium nitrite ([3]; MLB 3 mg/Kg for 7 days): significant (p<0.05) increase (two folds) | survival rate vs control after sodium nitrite ([3]; MLB 9 mg/Kg for 7 days): significant (p<0.05) different from the control group | survival rate vs control after sodium nitrite ([3]; MLB 18 mg/Kg for 7 days): significant (p<0.05) different from the control group | cell infarct volume vs control ([4]; MLB 1.5 mg/Kg intraperitoneally 30 min before reperfusion): effective repression of cell infarct | cell infarct volume vs control ([4]; MLB 3 mg/Kg intraperitoneally 30 min before reperfusion): significant (p<0.01) difference from the control group | cell infarct size vs control ([4]; MLB 0.3 mg/Kg forced oral fed 30 min after reperfusion): effective repression of cell infarct | cell infarct size vs control ([4]; MLB 3 mg/Kg forced oral fed 30 min after reperfusion): significant (p<0.01) difference from the control group

C[C@@H]1O[C@@H](O[C@H]2C[C@@H](O)[C@]3(CO)[C@H]4[C@H](O)C[C@]5(C)[C@@H](C6=CC(=O)OC6)CC[C@]5(O)[C@@H]4CC[C@]3(O)C2)[C@H](O)[C@H](O)[C@H]1O [ouabain, reference compound]
Na+-K+ ATPase activity (free Pi), MLB compared with ouabain ([1]; rat brain cortex): the amount of free inorganic phosphate (Pi) is dependent on the raised inhibitor (MLB or ouabain) dosage
